One assay relates to HBV cccDNA. As to the kind of experiment: cccDNA inhibition assay (Southern blot of Hirt DNA). The assay is classed as cell-based, hepatitis B virus. As to conditions: for levels of HBV cccDNA and DP-rcDNA in cell cultures / pEC50: HepDES19 cells; for levels of HBV cccDNA and DP-rcDNA in cell cultures: day 12, figure legend; for pEC50: 288 h, harvested at day 12, read-out: EC50 of reduction of cccDNA. As to the method: Cell cultures: HepG2.2.15 cells were maintained in DMEM/F12 medium (Mediatech, Manassas, Va.) supplemented with 10% fetal bovine serum, 100 U/ml penicillin and 100 μg/ml streptomycin, plus 400 μg/ml G418. Tetracycline inducible HBV producer cells, specifically HepDE19 and HepDES19 cells, were maintained in the same way as HepG2.2.15, but with the addition of 1 μg/ml tetracycline (Guo, H., D. Jiang, T. Zhou, A. Cuconati, T. M. Block, and J. T. Guo. 2007). To initiate HBV replication and cccDNA formation in HepDE19 and HepDES19 cells, tetracycline was withdrawn from the culture medium and the cells were cultured for the indicated time period.
Viral nucleic acid analysis: Total cellular RNA was extracted with TRIzol reagent (Invitrogen, Grand Island, N.Y.) by following manufacturer's directions. Ten microgram of total cellular RNA was resolved in 1.5% agarose gel containing 2.2 M formaldehyde and transferred onto Hybond-XL membrane (GE Healthcare, Piscataway, N.J.) in 20×SSC buffer. Intracellular hepadnaviral core DNA and cccDNA (Hirt DNA) were extracted as described previously (Guo, H., D. Jiang, T. Zhou, A. Cuconati, T. M. Block, and J. T. Guo. 2007. Guo, H., D. Jiang, T. Zhou, A. Cuconati, T. M. Block, and J. T. Guo. 2007. Guo, H., R. Mao, T. M. Block, and J. T. Guo. 2010. Guo, H., W. S. Mason, C. E. Aldrich, J. R. Saputelli, D. S. Miller, A. R. Jilbert, and J. E. Newbold. 2005). Half of the DNA samples recovered from one well of a 6-well-plate were resolved by electrophoresis into a 1.2% agarose gel and blotted onto Hybond-XL membrane. Membranes were probed with either an α-^32P-UTP (800 Ci/mmol, Perkin Elmer) labeled hepadnaviral minus (detecting DNA) or plus strand (detecting RNA) specific full-length riboprobe and exposed to a phosphorimager screen (Fuji Film, Tokyo, Japan). Hybridization signals were visualized by Typhoon FLA-7000 (GE Healthcare) and quantified with ImageQuantTL software (GE Healthcare). […]
(§1) Identification of compounds that inhibits cccDNA accumulation in HepDES19 cells: Compounds were tested on HepDES19 cells, which have a higher level of cccDNA production than HepDE19 cells (Guo, H., D. Jiang, T. Zhou, A. Cuconati, T. M. Block, and J. T. Guo. 2007). Briefly, after withdrawal of tetracycline, HepDES19 cells were left untreated, or were treated with compound at serial concentrations; tetracycline-free media was changed every other day with fresh compound supplementation. The concentration of DMSO in all experimental groups was normalized at 0.1%. The cells were harvested at day 12, viral RNA (top panel), core DNA (middle panel), and Hirt DNA (DP-rcDNA and cccDNA) (bottom panels) were extracted and analyzed by Northern blot and Southern blot, respectively. Shorter exposure of the Hirt DNA blot was used for the quantitative determination of DP-rcDNA signals. […] The reduction between DP-rcDNA and cccDNA was proportional compared with untreated control. […] Liu, C. P. Hu, and C. Chang. 2005. Guo, H., T. Zhou, D. Jiang, A. Cuconati, G. H. Xiao, T. M. Block, and J. T. Guo. 2007. Zhou, T., H. Guo, J. T. Guo, A. Cuconati, A. Mehta, and T. M. Block. 2006).

A further assay concerns HBV RNA and core DNA. Put plainly: viral RNA and core DNA in HepDES19 cells (Northern/Southern blot). Type of assay: cell-based, hepatitis B virus. As to conditions: for reduction of viral RNA and DNA replicative intermediates: day 12, high concentrations; for steady state levels of HBV RNA and core DNA: early time point (day 4) of treatment.
Excerpt: Viral nucleic acid analysis: Total cellular RNA was extracted with TRIzol reagent (Invitrogen, Grand Island, N.Y.) by following manufacturer's directions. Ten microgram of total cellular RNA was resolved in 1.5% agarose gel containing 2.2 M formaldehyde and transferred onto Hybond-XL membrane (GE Healthcare, Piscataway, N.J.) in 20×SSC buffer. Intracellular hepadnaviral core DNA and cccDNA (Hirt DNA) were extracted as described previously (Guo, H., D. Jiang, T. Zhou, A. Cuconati, T. M. Block, and J. T. Guo. 2007. Guo, H., D. Jiang, T. Zhou, A. Cuconati, T. M. Block, and J. T. Guo. 2007. Guo, H., R. Mao, T. M. Block, and J. T. Guo. 2010. Guo, H., W. S. Mason, C. E. Aldrich, J. R. Saputelli, D. S. Miller, A. R. Jilbert, and J. E. Newbold. 2005). Half of the DNA samples recovered from one well of a 6-well-plate were resolved by electrophoresis into a 1.2% agarose gel and blotted onto Hybond-XL membrane. Membranes were probed with either an α-^32P-UTP (800 Ci/mmol, Perkin Elmer) labeled hepadnaviral minus (detecting DNA) or plus strand (detecting RNA) specific full-length riboprobe and exposed to a phosphorimager screen (Fuji Film, Tokyo, Japan). Hybridization signals were visualized by Typhoon FLA-7000 (GE Healthcare) and quantified with ImageQuantTL software (GE Healthcare).
as §1, with “The cells were harvested at day 12, viral RNA (top panel), core DNA (middle panel), and Hirt DNA (DP-rcDNA and cccDNA) (bottom panels) were extracted and analyzed by Northern blot and Southern blot, respectively.” left out

pEC50: −log10 of the molar value.

A word on the pEC50: it is the negative decadic logarithm of the EC50, by convention in mol/L. What is called inhibition is the change of the read-out against control, counted positive when it falls.

For `O=C(CN(c1cc(C(F)(F)F)ccc1Cl)S(=O)(=O)c1ccccc1)NCc1ccncc1` [CCC-0975, 2-[Benzenesulfonyl-(2-chloro-5-trifluoromethyl-phenyl)-amino]-N-pyridin-4-ylmethyl-acetamide], the “cccDNA inhibition % Reduction” value in the assay with HBV cccDNA (Concentration 1 μM, 1 µM) was found to be 10%; in the assay with HBV cccDNA (Concentration 3 μM, 3 µM), 20%; with HBV cccDNA (Concentration 10 μM, 10 µM), 70%. Also, the “levels of HBV cccDNA and DP-rcDNA in cell cultures” value with HBV cccDNA is given as “reduces”. For the same compound, the pEC50 with HBV cccDNA (Hepatitis B virus) is 5.00. Besides, the “reduction of viral RNA and DNA replicative intermediates” value in the assay on HBV RNA and core DNA was “slight reduction”. The “steady state levels of HBV RNA and core DNA” value in the assay with HBV RNA and core DNA is “did not reduce”.

`Cc1nc2cc(NC(=O)c3ccc(S(=O)(=O)N(C)Cc4ccccc4)cc3)ccc2s1` [CCC-0346, 4-(Benzyl-methyl-sulfamoyl)-N-(2-methyl-benzothiazol-5-yl)-benzamide]: the “levels of HBV cccDNA and DP-rcDNA in cell cultures” value in the assay on HBV cccDNA was “reduces”. The pEC50 in the assay with HBV cccDNA (Hepatitis B virus) is 5.52. Besides, the inhibition at 0.3 µM in the assay on HBV cccDNA (Hepatitis B virus, Concentration 0.3 μM, read-out: cccDNA inhibition % Reduction) is 20%. In addition, the inhibition at 1 µM in the assay on HBV cccDNA (Hepatitis B virus, Concentration 1 μM, read-out: cccDNA inhibition % Reduction) was 30%. In addition, the inhibition at 3 µM in the assay with HBV cccDNA (Hepatitis B virus, Concentration 3 μM, read-out: cccDNA inhibition % Reduction) came out at 60%. Besides, in the assay with HBV RNA and core DNA, the “reduction of viral RNA and DNA replicative intermediates” value is “slight reduction”; the “steady state levels of HBV RNA and core DNA” value is recorded as “did not reduce”.

For the origin of these results see patent publication US9657013B2, “Inhibitors of hepatitis B virus covalently closed circular DNA formation and their method of use” (priority 2012, dated 2017).
